This note sets out measurements from US7524886B2, “L-(−)-moprolol L-(+)-tartrate” (Aziende Chimiche Riunite Angelini Francesco A.C.R.A.F. …, priority 2004, dated 2009).

The data set has as its system rabbit eye (conjunctiva, iris, cornea). The data set is described as follows: Ocular tolerability (Draize) in rabbits. Format: in vivo, rabbits (New Zealand White). On the procedure: Two aqueous solutions were used.
The first contained 1% by weight of L-(−)-moprolol hydrochloride (corresponding to 0.87% by weight of L-(−)-moprolol). The second contained 1.14% by weight of L-(−)-moprolol L-(+)-tartrate (2:1) (corresponding to 0.87% by weight of L-(−)-moprolol).
12 male rabbits (New Zealand White) with an average weight of 2 kg and an average age of ten months were used, divided into two groups of six rabbits each. The first group was treated with 0.1 ml of the first test solution three times a day for fifteen days. The second group was treated with 0.1 ml of the second test solution three times a day for fifteen days.
The tolerability was evaluated according to J. Draize et al., Pharmacol. Exp. Ther., 83, 377-390 (1944).

Setting [1] is: Draize score, male rabbits, 0.1 ml aqueous solution (0.87% by weight L-(−)-moprolol) three times a day for fifteen days.

Structures are written as SMILES.

For `COc1ccccc1OC[C@@H](O)CNC(C)C.COc1ccccc1OC[C@@H](O)CNC(C)C.O=C(O)C(O)C(O)C(=O)O` [L-(−)-moprolol L-(+)-tartrate, L-(−)-moprolol L-(+)-tartrate (2:1)], under setting [1], the “Conjunctiva Lachrymation” value stood at 1, the “Conjunctiva Reddening” value amounted to 0, the “Conjunctiva Swelling” value is on record as 0 and the “Cornea Area of the cornea affected by opacity” value came out at 0. In addition, under setting [1], the “Cornea Opacity” value was determined as 0 and the Iris came to 0. In addition, under “rabbit, in vivo”, the local tolerability entry is recorded as “better local tolerability”. For the same molecule, where the note is “sum of Draize scores, male rabbits, 0.1 ml aqueous solution (0.87% by weight L-(−)-moprolol) three times a day for fifteen days”, the “Total Score” value is 1.
`COc1ccccc1OC[C@@H](O)CNC(C)C.Cl` [L-(−)-moprolol hydrochloride, reference compound]: where the note is “rabbit, in vivo”, the “Conjunctiva Lachrymation” value stood at 2, the “Conjunctiva Reddening” value is reported as 1, the “Conjunctiva Swelling” value is 2 and the “Cornea Area of the cornea affected by opacity” value worked out at 0. Besides, where the note is “rabbit, in vivo”, the “Cornea Opacity” value is 0, the Iris was 0 and the “Total Score” value came to 5.
